Where two headings read alike, the source gives them in different places. Starred links: 1 amine or outer side, 2 acyl side, 3 side chain; linkers in the order of their positions; H or OH if unused. Non-standard residues stand in square brackets, D forms with d. Residues, ends and D or L forms follow the SMILES beside them. *: point of attachment. azaTyr = O=C(N(Cc1ccc(O)cc1)N[*:1])[*:2]; azaPhe = O=C(N(Cc1ccccc1)N[*:1])[*:2]; X2 = O=C(N(CCc1ccccc1)N[*:1])[*:2]; azaLeu = CC(C)CN(N[*:1])C(=O)[*:2]; Hydrocinnamoyl = O=C(CCc1ccccc1)*; azaPro = O=C(N1CCCN1[*:1])[*:2]
What was measured:
[1] = biological target: CD36 (Rattus norvegicus (Rat), UniProt Q07969); assay: CD36 receptor covalent photolabelling binding assay, competition with [125I]Tyr-Bpa-Ala-hexarelin on rat cardiac membranes; details: for binding activity/affinity at CD36 in words: compared with parent peptide GHRP-6 or hexarelin
Procedure: The hearts from Sprague Dawley rats (300 g-325 g) from Charles River, used as a source of cardiac membranes, were prepared as follows: the heart was washed with ice-cold saline, and fatty and connective tissue was removed. The tissue was cut into small pieces with scissors and placed in a Sorvall centrifuge tube containing 5 ml/g of fresh tissue of Buffer A (10 mM NaHCO3, 5 mM NaN3, 10 μM Pefabloc, 0.1 μM Aprotinin, 1 μM Pepstatin A, 1 μM Leupeptin, pH 7.0). The suspension was homogenized with a Polytron at low speed, 3×15 sec. The homogenate was centrifuged at 8 700×g for 20 min and the supernatant was put on ice. The pellet was resuspended and homogenized with a Glass-teflon Potter by 5 strokes. The homogenate was centrifuged at 8 700×g for 10 min and this supernatant was combined with the first supernatant. The supernatant fluid was centrifuged at 35 000×g for 20 min, yielding a second pellet fraction that was suspended thoroughly in a glass homogenizer with a Teflon pestle in 20 ml/g of fresh tissue of Buffer B (20 mM Tris-maleate, 0.6M KCl, pH 6.8). The resulting suspension was centrifuged again at 35 000×g for 60 min. The third pellet fraction was resuspended thoroughly in a glass homogenizer with a Teflon pestle in 20 ml/g of fresh tissue of Buffer C (10 mM Tris/HCl buffer pH 7.4) followed with another centrifugation at 35 000×g for 60 min. The harvested precipitate was then suspended in a small volume (1-2 ml/g of fresh tissue) of 50 mM Tris/HCl buffer pH 7.4) containing 2 mM EGTA. The resulting membrane preparation was frozen at −80° C. Protein concentration was determined with bicinchoninic acid (BCA) method, using BSA as standard.
The iodination procedure was performed in the darkness. […] The reaction was started by adding 5 ul (3 nmol) of H2O2. The incubation was carried out at 22° C. for 5 min. The addition of H2O2 was repeated twice with 5 min incubation each time. The reaction was stopped with the addition of 1.4 ml of 0.1% TFA. The iodinated peptide was purified on a reverse-phase Vydac C18 column with a 60 min linear gradient (1 ml/min) from 20% to 50% acetonitrile (90%) in 0.1% TFA (10%).
Nonspecific binding was defined as binding not displaced by 50 μM corresponding peptide. All peptide containing solutions were diluted in Buffer B. Buffer A and B were degassed under vacuum, and used in capped tubes in order to minimize lipid peroxydation. Before the incubation period, all tubes were put under a low flow of nitrogen. All material was kept on ice and the binding assay was performed in darkness. After an incubation period of 60 min at 22° C. […] After centrifugation at 12 000×g for 15 minutes, the pellets were resuspended in 150 μl of sample buffer (62 mM Tris-HCl, pH 6.8, 2% SDS, 10% glycerol, 15% 2-mercapto-ethanol, and 0.05% bromophenol blue), and boiled for 5 min prior to being subjected to electrophoresis. Proteins (200 μg/100 μl) were separated on 7.5% SDS-PAGE (45 V overnight). The gels resulting from SDS/PAGE were fixed, colored in Coomassie Brilliant Blue R-250, dried, exposed to a storage phosphor intensifying screen (Amersham Biosciences), and analysed by using a Typhoon PhosphorImager (Amersham Biosciences) and ImageQuant 5.0 software to establish competition curves. Protein bands were quantified by densitometry. The covalent binding signal of 87 kDa was analyzed by densitometry using Typhoon Phospholmager™ (Typhoon, Amersham Biosciences) and ImageQuant 5.0® software to set competition curves.
Specific binding activities were defined as the ratio of the density of the protein band to that of a non-specific band. Results are expressed as the percentage of the density of the […] to that of the total binding band.

[2] = biological target: human GHS-R1a (Homo sapiens (Human), UniProt Q92847); assay: GHS-R1a binding assay, competition with 125I-ghrelin on membranes of LLC-PK1 cells expressing human GHS-R1a; details: for binding affinity for GHS-R1a receptor in words: compared with GHRP-6
Procedure: Rat ghrelin was radio iodinated with Na^125I using the lodo-Beads iodination reagent (Pierce #28665). Briefly, an lodo-bead was incubated with 2 mCi of Na^125I (Amersham) in 100 μL of 50 mM sodium phosphate buffer, pH 7.0 for 5 min at 22° C. The reaction was started by adding 20 nmol of the peptide (1 mM in 0.1 M acetic acid). The tube was incubated for 10 min at 22° C. The iodination was terminated by adding 1 mL of 0.1% TFA. The mono-iodinated peptide was purified by reverse-phase HPLC using a Vydac C18 ([…]) column (30 cm×0.39 cm) in combination with a binary elution system of (A) 0.1% TFA in H2O and (B) 0.1% TFA, 10% H2O, 90% acetonitrile. Fractions of 0.5 mL were collected and analyzed by its radioactive content.
Cells (1.4×10^6) were plated in 100 mm plates and transfected 24 h later with pCDNA3.1-hGHS-R1a (UMR cDNA Resource Center #GHSR0A0000) following the CaHPO4 precipitation method. Briefly, 40 μg of plasmid DNA was diluted in 500 μL of sterile H2O and added to an equal volume of a 4× CaCl2, pH 7.9 solution (2 mM Tris-HCl, 0.2 mM EDTA, 500 mM CaCl2). The mixture was then added slowly with air bubbles to 1 mL of 2× Hepes-buffered saline, pH 7.1 (50 mM Hepes, 280 mM NaCl, 1.5 mM Na2HPO4). After 30 min at room temperature, 1 mL was distributed evenly over the cells and let overnight. The medium was changed the next morning and the membrane preparation was made two days later.
Cells were washed twice with PBS and once with ice-cold homogenization buffer (50 mM Tris-HCl, pH 7.3, 5 mM MgCl2, 2.5 mM EDTA, 30 μg/ml bacitracin). Cells were scraped and harvested in 1.5 mL tubes. Cells were then lysed by temperature shock with two freeze/thaw cycles in liquid nitrogen. The tubes were centrifuged at 14000 g for 20 min. Pellets were resuspended in homogenization buffer and stored at −80° C. until used. Total protein concentrations were determined with the BCA protein assay kit (Pierce).
Competition experiments were performed by incubating 50 μg of LLC-PK1 membranes expressing human GHS-R1a with 15 fmol of ^125I-Ghrelin and increasing concentrations of unlabeled ghrelin or with increasing concentrations of azapeptides derivatives in 0.5 mL of binding buffer. Bound radiolabelled ligand was separated from free by filtration on Whatman GF/C filters pretreated with a 1% polyethylenimine solution. Filters were washed with 2×3 mL of washing buffer (50 mM Tris-HCl, pH 7.3, 10 mM MgCl2, 2.5 mM EDTA, 0.015% Triton X-100). Filters were counted in a LKB gamma counter. Curves were analyzed using Prism software (GraphPad Software Inc).

[3] = Table 6, read-out: IC50 Binding CD36
[4] = Table 5, read-out: IC50 Binding GHS-R1a
[5] = Table 3, rat cardiac membranes, [125I]Tyr-Bpa-Ala-hexarelin as radioligand, read-out: IC50, binding affinity of aza peptide derivatives towards CD36
[6] = Table 4, LLCPK-1 membranes overexpressing GHS-R1a, radioiodinated (1-28) rat ghrelin as tracer, read-out: EC50 (text: IC50 values from competition curves in GHS-R1a radioreceptor assay)

Chain of human GHS-R1a (Q92847 whole entry): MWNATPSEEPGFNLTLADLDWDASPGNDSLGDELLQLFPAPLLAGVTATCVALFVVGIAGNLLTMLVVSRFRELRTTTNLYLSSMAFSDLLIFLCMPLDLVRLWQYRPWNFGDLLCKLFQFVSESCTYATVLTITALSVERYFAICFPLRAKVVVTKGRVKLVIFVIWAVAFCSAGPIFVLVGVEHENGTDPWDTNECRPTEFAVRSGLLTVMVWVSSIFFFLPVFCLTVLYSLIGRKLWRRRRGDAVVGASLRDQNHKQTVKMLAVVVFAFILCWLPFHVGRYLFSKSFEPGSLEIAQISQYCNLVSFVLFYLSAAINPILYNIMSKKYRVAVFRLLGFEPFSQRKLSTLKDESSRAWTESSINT
Chain of CD36 (Q07969 whole entry): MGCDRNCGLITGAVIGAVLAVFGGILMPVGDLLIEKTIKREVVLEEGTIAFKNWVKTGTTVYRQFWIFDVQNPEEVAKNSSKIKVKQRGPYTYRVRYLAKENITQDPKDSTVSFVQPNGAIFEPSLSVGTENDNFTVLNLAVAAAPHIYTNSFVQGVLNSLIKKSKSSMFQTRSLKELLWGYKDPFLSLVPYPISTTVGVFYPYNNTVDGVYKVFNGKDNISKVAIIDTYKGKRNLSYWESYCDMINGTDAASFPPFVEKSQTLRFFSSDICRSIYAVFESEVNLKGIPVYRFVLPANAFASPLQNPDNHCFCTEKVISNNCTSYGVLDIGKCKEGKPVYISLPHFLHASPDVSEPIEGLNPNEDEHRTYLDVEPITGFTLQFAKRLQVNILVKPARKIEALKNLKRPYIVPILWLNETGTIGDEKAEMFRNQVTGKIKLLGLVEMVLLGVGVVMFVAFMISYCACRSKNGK

Row | IC50 [1, 3] [µM] | IC50 [2, 4] [µM] | Structure (SMILES) | binding activity/affinity at CD36 in words [1] | other results
1 | 4.94 | > 10 | CC(C)CN(NC(=O)[C@@H](Cc1c[nH]c2ccccc12)NC(=O)[C@@H](N)Cc1cnc[nH]1)C(=O)N[C@@H](Cc1c[nH]c2ccccc12)C(=O)N[C@H](C)C(=O)N[C@@H](CCCCN)C(N)=O [CP-2B (ii), His-D-Trp-azaLeu-Trp-D-Ala-Lys-NH2] (H-H[dW][azaLeu]W[dA]K-NH2) | retained significant activity similar to the parent peptide | binding activity/affinity at CD36 in words ([1]; listed as CP-2B(ii)): without major change; binding affinity for GHS-R1a receptor in words [2]: decreased drastically
2 |  |  | CC(C)CN(NC(=O)[C@H](C)NC(=O)[C@@H](Cc1c[nH]c2ccccc12)NC(=O)[C@@H](N)Cc1cnc[nH]1)C(=O)N[C@H](Cc1ccccc1)C(=O)N[C@@H](CCCCN)C(N)=O [DBG253-2, His-D-Trp-Ala-azaLeu-D-Phe-Lys-NH2] (H-H[dW]A[azaLeu][dF]K-NH2) |  | IC50 [1, 5]: 2890 µM; IC50 [2, 6]: 19.5 µM
3 | 17.4 | > 10 | C[C@H](N)C(=O)NN(Cc1ccc(O)cc1)C(=O)N[C@@H](C)C(=O)N[C@@H](Cc1c[nH]c2ccccc12)C(=O)N[C@H](Cc1ccccc1)C(=O)N[C@@H](CCCCN)C(N)=O [CP-1B (iv), Ala-AzaTyr-Ala-Trp-D-Phe-Lys-NH2] (H-A[azaTyr]AW[dF]K-NH2) |  | 
4 |  |  | C[C@H](NC(=O)[C@@H](Cc1c[nH]c2ccccc12)NC(=O)[C@@H](N)Cc1cnc[nH]1)C(=O)NN(Cc1ccccc1)C(=O)N[C@H](Cc1ccccc1)C(=O)N[C@@H](CCCCN)C(N)=O [DBG253-1, His-D-Trp-Ala-azaPhe-D-Phe-Lys-NH2] (H-H[dW]A[azaPhe][dF]K-NH2) | maintaining the binding activity | IC50 [1, 5]: 1.34 µM; IC50 [2, 6]: 2.77 µM; binding affinity for GHS-R1a receptor in words [2]: reducing the binding affinity
5 | 3.68 |  | CC(C)CN(NC(=O)[C@@H](Cc1c[nH]c2ccccc12)NC(=O)[C@H](C)N)C(=O)N[C@@H](Cc1c[nH]c2ccccc12)C(=O)N[C@H](Cc1ccccc1)C(=O)N[C@@H](CCCCN)C(N)=O [CP-2B (v), Ala-D-Trp-azaLeu-Trp-D-Phe-Lys-NH2] (H-A[dW][azaLeu]W[dF]K-NH2) | retained significant activity similar to the parent peptide | binding activity/affinity at CD36 in words ([1]; listed as CP-2B(v)): without major change; binding affinity for GHS-R1a receptor in words [2]: decreased drastically
6 | > 10 | > 10 | C[C@H](NC(=O)[C@@H](Cc1c[nH]c2ccccc12)NC(=O)[C@@H](N)Cc1cnc[nH]1)C(=O)N1CCCN1C(=O)N[C@H](Cc1ccccc1)C(=O)N[C@@H](CCCCN)C(N)=O [CP-AP-3, His-D-Trp-Ala-azaPro-D-Phe-Lys-NH2] (H-H[dW]A[azaPro][dF]K-NH2) |  | 
7 | 9.66 | > 10 | CC(C)CN(NC(=O)[C@@H](Cc1c[nH]c2ccccc12)NC(=O)[C@@H](N)Cc1cnc[nH]1)C(=O)N[C@@H](C)C(=O)N[C@H](Cc1ccccc1)C(=O)N[C@@H](CCCCN)C(N)=O [CP-2B (iii), His-D-Trp-azaLeu-Ala-D-Phe-Lys-NH2] (H-H[dW][azaLeu]A[dF]K-NH2) | retained significant activity similar to the parent peptide | 
8 | 32.5 | > 10 | C[C@H](NC(=O)[C@@H](Cc1c[nH]c2ccccc12)NC(=O)CCc1ccccc1)C(=O)NN(Cc1ccc(O)cc1)C(=O)N[C@H](Cc1ccccc1)C(=O)N[C@@H](CCCCN)C(N)=O [ZS556, Hydrocinnamyl-D-Trp-Ala-AzaTyr-D-Phe-Lys-NH2] (Hydrocinnamoyl-[dW]A[azaTyr][dF]K-NH2) |  | 
9 |  |  | C[C@H](NC(=O)[C@@H](Cc1c[nH]c2ccccc12)NC(=O)[C@@H](N)Cc1cnc[nH]1)C(=O)NN(CCc1ccccc1)C(=O)N[C@H](Cc1ccccc1)C(=O)N[C@@H](CCCCN)C(N)=O [DBG253-5, His-D-Trp-Ala-azahomoPhe-D-Phe-Lys-NH2] (H-H[dW]A[X2][dF]K-NH2) |  | IC50 [1, 5]: > 10 µM; IC50 [2, 6]: 3.74 µM
10 | 9.02 | 8.17 | CC(C)CN(NC(=O)[C@@H](Cc1c[nH]c2ccccc12)NC(=O)[C@@H](N)Cc1cnc[nH]1)C(=O)N[C@@H](Cc1c[nH]c2ccccc12)C(=O)N[C@H](Cc1ccccc1)C(=O)N[C@@H](C)C(N)=O [CP-2B (i), His-D-Trp-azaLeu-Trp-D-Phe-Ala-NH2] (H-H[dW][azaLeu]W[dF]A-NH2) | retained significant activity similar to the parent peptide | 

Row | Structure (SMILES) | IC50 [1, 3] [µM] | IC50 [2, 4] [µM] | binding activity/affinity at CD36 in words [1] | other results
11 | C[C@H](NC(=O)[C@@H](Cc1ccccc1)NC(=O)[C@H](Cc1c[nH]c2ccccc12)NC(=O)[C@H](C)NC(=O)N(Cc1ccccc1)NC(=O)[C@@H](N)Cc1cnc[nH]1)C(N)=O [CP-1A (i), His-azaPhe-Ala-Trp-D-Phe-Ala-NH2] (H-H[azaPhe]AW[dF]A-NH2) | > 10 | 51 |  | IC50 ([2]; Table 5, listed as CP-1A(i), read-out: IC50 Binding GHS-R1a): > 10 µM
12 | C[C@H](NC(=O)[C@H](C)NC(=O)N(Cc1ccccc1)NC(=O)[C@@H](N)Cc1cnc[nH]1)C(=O)N[C@H](Cc1ccccc1)C(=O)N[C@@H](CCCCN)C(N)=O [CP-1A (iii), (D/L)His-azaPhe-Ala-Ala-D-Phe-Lys-NH2] (H-H[azaPhe]AA[dF]K-NH2) | 27.6 | > 10 |  | 

From US9708370B2, “Azapeptides as CD36 binding compounds” (VALORISATION-RECHERCHE, LIMITED PARTNERSHIP, priority 2007, dated 2017)
